# Tested on: HBsAg
# Test: HBsAg assay: inhibition of HBsAg in HepG2.2.15 cells (chemiluminescence immunoassay of supernatant)
# Type: cell-based, hepatitis B virus
# Settings: Hepatitis B virus, HepG2.2.15, 144 h, read-out: sAg EC50, HepG2.2.15 cells; HBsAg in supernatant at day 6 after exposure to compound; 0.5% DMSO
# Procedure, shortened: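 Secreted HBsAg quantified by CLIA in day-6 supernatants of HepG2.2.15 cultures given compound dilutions at 0.5% final DMSO, with one compound/medium replenishment after 2–3 days. Dose-response fits gave EC50 (50% inhibition); viability checked separately by CellTiter-Glo.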
row,Compound,EC50 [nM]
1,"Fc1ccc([C@@H]2C[C@H]2c2ccnc(-c3ncccn3)n2)cc1F (relative stereo) [Example 4, trans-4-(2-(3,4-Difluorophenyl)cyclopropyl)-2,2′-bipyrimidine]",7000
2,"Cn1cnc(COc2cc([C@@H]3C[C@H]3c3cnc(-c4ncccn4)nc3)cc(F)c2F)n1 (relative stereo) [Example 217, trans-5-(2-(3,4-Difluoro-5-((1-methyl-1H-1,2,4-triazol-3-yl)methoxy)phenyl)cyclopropyl)-2,2′-bipyrimidine]",200
3,"CO[C@H]1CN(c2cc(C3CC3c3cnc(-c4ncccn4)nc3)cc(F)c2F)C[C@H]1OC (relative stereo) [Example 235, trans-5-(2-(3-((3R,4S)-3,4-Dimethoxypyrrolidin-1-yl)-4,5-difluorophenyl)cyclopropyl)-2,2′-bipyrimidine]",39
4,"Fc1ccc([C@@H]2C[C@H]2c2cnc(-c3ncccn3)nc2)c2ccccc12 (relative stereo) [Example 168, trans-5-(2-(4-Fluoronaphthalen-1-yl)cyclopropyl)-2,2′-bipyrimidine]",36
5,"Cc1nc2cc([C@@H]3C[C@H]3c3cnc(-c4ncccn4)nc3)ccc2s1 (relative stereo) [Example 278, trans-5-(2-([2,2′-Bipyrimidin]-5-yl)cyclopropyl)-2-methylbenzo[d]thiazole]",56
6,"COCCOc1ccc(C2CC2c2cnc(-c3ncccn3)nc2)cc1F (single isomer, unassigned) [Example 23, trans-5-(2-(3-Fluoro-4-(2-methoxyethoxy)phenyl)cyclopropyl)-2,2′-bipyrimidine]",95
7,"Fc1ccc(C2CC2c2ccnc(-c3ncccn3)n2)cc1F (single isomer, unassigned) [Example 5, trans-4-(2-(3,4-Difluorophenyl)cyclopropyl)-2,2′-bipyrimidine]",5000
8,"CN(C)C(=O)c1cc(C2CC2c2cnc(-c3ncccn3)nc2)ccc1Cl (single isomer, unassigned) [Example 203, trans-5-(2-([2,2′-Bipyrimidin]-5-yl)cyclopropyl)-2-chloro-N,N-dimethylbenzamide]",6000
9,"COc1cccnc1-c1ncc([C@@H]2C[C@H]2c2cc(F)c(F)c(OC)c2)cn1 (relative stereo) [Example 180, trans-5-(2-(3,4-Difluoro-5-methoxyphenyl)cyclopropyl)-2-(3-methoxypyridin-2-yl)pyrimidine]",1000
10,"Fc1cc(C2CC2c2cnc(-c3ncccn3)nc2)cc(N2CCCC2)c1Cl (single isomer, unassigned) [Example 90, trans-5-(2-(4-Chloro-3-fluoro-5-(pyrrolidin-1-yl)phenyl)cyclopropyl)-2,2′-bipyrimidine]",28
11,"c1cnc(-c2ncc([C@@H]3C[C@H]3c3ccc4ccccc4c3)cn2)nc1 (relative stereo) [Example 167, trans-5-(2-(Naphthalen-2-yl)cyclopropyl)-2,2′-bipyrimidine]",180

# Same assay, conditions: read-out: sAg EC50; HepG2.2.15 cells; HBsAg in supernatant at day 6 after exposure to compound; 0.5% DMSO
row,Compound,EC50 [nM]
1,"COc1ccc(C2CC2c2cnc(-c3ncccn3)nc2)cc1OC (single isomer, unassigned) [Example 32, trans-5-(2-(3,4-Dimethoxyphenyl)cyclopropyl)-2,2′-bipyrimidine]",480
2,"COCCCOc1cc(C2CC2c2cnc(-c3ncccn3)nc2)cc(F)c1F (single isomer, unassigned) [Example 130, trans-5-(2-(3,4-Difluoro-5-(3-methoxypropoxy)phenyl)cyclopropyl)-2,2′-bipyrimidine]",260
3,"Fc1ccc(C2CC2c2cnc(-c3ncccn3)nc2)cc1Cl (single isomer, unassigned) [Example 30, trans-5-(2-(3-Chloro-4-fluorophenyl)cyclopropyl)-2,2′-bipyrimidine]",80
4,"CO[C@@H]1CCN(c2cc(C3CC3c3cnc(-c4ncccn4)nc3)cc(F)c2F)C1 (single isomer, unassigned) [Example 97]",14
5,"COCCCn1ncc2c(C3CC3c3cnc(-c4ncccn4)nc3)cc(F)c(F)c21 (single isomer, unassigned) [Example 266, trans-4-(2-([2,2′-Bipyrimidin]-5-yl)cyclopropyl)-6,7-difluoro-1-(3-methoxypropyl)-1H-indazole]",2
6,"COc1cc(C2CC2c2cnc(-c3ncccn3)nc2-c2ccc3nc(C)sc3c2)ccc1F (single isomer, unassigned) [Example 140, trans-6-(5-(2-(4-Fluoro-3-methoxyphenyl)cyclopropyl)-[2,2′-bipyrimidin]-4-yl)-2-methylbenzo[d]thiazole]",37000
7,"CC(=O)N1CC[C@H](Nc2cc(C3CC3c3cnc(-c4ncccn4)nc3)cc(F)c2F)C1 (single isomer, unassigned) [Example 224]",5000
8,"Fc1cc(C2CC2c2cnc(-c3ncccn3)nc2)cc(N2CCCC2)c1Cl (single isomer, unassigned) [Example 91, trans-5-(2-(4-Chloro-3-fluoro-5-(pyrrolidin-1-yl)phenyl)cyclopropyl)-2,2′-bipyrimidine]",14
9,"CN1CC[C@@H](Nc2cc(C3CC3c3cnc(-c4ncccn4)nc3)cc(F)c2F)C1 (single isomer, unassigned) [Example 231]",750
10,"Fc1ccc(C2CC2c2cnc(-c3ncccn3)nc2)cc1F (single isomer, unassigned) [Example 15, trans-5-(2-(3,4-Difluorophenyl)cyclopropyl)-2,2′-bipyrimidine]",76
11,"Cc1cc(C2CC2c2cnc(-c3ncccn3)nc2)cc(OCC2CC2)c1Cl (single isomer, unassigned) [Example 50, trans-5-((2-(4-Chloro-3-(cyclopropylmethoxy)-5-methylphenyl)cyclopropyl)-2,2′-bipyrimidine]",2000
12,"COc1cc(C2CC2c2cnc(-c3ncccn3)nc2C)ccc1F (single isomer, unassigned) [Example 18, trans-5-(2-(4-Fluoro-3-methoxyphenyl)cyclopropyl)-4-methyl-2,2′-bipyrimidine]",890
13,"CC1(C)CN(c2cc(C3CC3c3cnc(-c4ncccn4)nc3)cc(F)c2F)C1 (single isomer, unassigned) [Example 139, trans-5-(2-(3-(3,3-Dimethylazetidin-1-yl)-4,5-difluorophenyl)cyclopropyl)-2,2′-bipyrimidine]",88
14,"Fc1ccc(C2CC2c2cnc(-c3ncccn3)nc2)cc1N1CCCCC1 (single isomer, unassigned) [Example 196, trans-5-(2-(4-Fluoro-3-(piperidin-1-yl)phenyl)cyclopropyl)-2,2′-bipyrimidine]",210
15,"Fc1ccc(C2CC2c2cnc(-c3ncccn3)nc2)cc1N1CCCC1 (single isomer, unassigned) [Example 20, trans-5-(2-(4-Fluoro-3-(pyrrolidin-1-yl)phenyl)cyclopropyl)-2,2′-bipyrimidine]",23
16,"COc1cc(C2CC2c2cnc(-c3ncccn3)nc2)ccc1Cl (single isomer, unassigned) [Example 34, trans-5-(2-(4-Chloro-3-methoxyphenyl)cyclopropyl)-2,2′-bipyrimidine]",150
17,"COc1cc(C2CC2c2cnc(-c3ncccn3)nc2)cc(OC)c1F (single isomer, unassigned) [Example 146, trans-5-(2-(4-Fluoro-3,5-dimethoxyphenyl)cyclopropyl)-2,2′-bipyrimidine]",110
18,"COc1ccc(C2CC2c2cnc(-c3ncccn3)nc2)c(F)c1 (single isomer, unassigned) [Example 2, trans-5-(2-(2-Fluoro-4-methoxyphenyl)cyclopropyl)-2,2′-bipyrimidine]",230
19,"Fc1ccc(C2CC2c2cnc(-c3ncccn3)nc2)cc1OC(F)(F)F (single isomer, unassigned) [Example 40, trans-5-(2-(4-Fluoro-3-(trifluoromethoxy)phenyl)cyclopropyl)-2,2′-bipyrimidine]",110
20,"COCCOc1cc(C2CC2c2cnc(-c3ncccn3)nc2)ccc1F (single isomer, unassigned) [Example 21, trans-5-(2-(4-Fluoro-3-(2-methoxyethoxy)phenyl)cyclopropyl)-2,2′-bipyrimidine]",490
21,"Fc1cn(-c2cc(C3CC3c3cnc(-c4ncccn4)nc3)cc(F)c2F)cc1F (single isomer, unassigned) [Example 257, trans-5-(2-(3-(3,4-Difluoro-1H-pyrrol-1-yl)-4,5-difluorophenyl)cyclopropyl)-2,2′-bipyrimidine]",140
22,"CS(=O)(=O)N1CCN(c2cc(C3CC3c3cnc(-c4ncccn4)nc3)ccc2F)CC1 (single isomer, unassigned) [Example 42, trans-5-(2-(4-Fluoro-3-(4-(methylsulfonyl)piperazin-1-yl)phenyl)cyclopropyl)-2,2′-bipyrimidine]",220
23,"OC1CN(c2cc(C3CC3c3cnc(-c4ncccn4)nc3)ccc2F)C1 (single isomer, unassigned) [Example 54, trans-1-(5-(2-([2,2′-Bipyrimidin]-5-yl)cyclopropyl)-2-fluorophenyl)azetidin-3-ol]",220
24,"O[C@@H]1CCN(c2cc(C3CC3c3cnc(-c4ncccn4)nc3)cc(Cl)c2F)C1 (single isomer, unassigned) [Example 127]",110
25,"O[C@@H]1CCN(c2cc(C3CC3c3cnc(-c4ncccn4)nc3)cc(F)c2F)C1 (single isomer, unassigned) [Example 105]",97
26,"COc1cc(C2CC2c2cnc(-c3ncccn3)nc2OC)ccc1F (single isomer, unassigned) [Example 81, trans-5-(2-(4-Fluoro-3-methoxyphenyl)cyclopropyl)-4-methoxy-2,2′-bipyrimidine]",230
27,"COCCOc1cc(F)c(Cl)cc1C1CC1c1cnc(-c2ncccn2)nc1 (single isomer, unassigned) [Example 156, trans-5-(2-(5-Chloro-4-fluoro-2-(2-methoxyethoxy)phenyl)cyclopropyl)-2,2′-bipyrimidine]",190

# Source: patent US20230083973A1, “SUBSTITUTED CYCLOPROPYL-2,2'-BIP[…], ANALOGUES THEREOF, AND METHODS USING SAME” (priority 2019, published 2023)
